Test results reported in US9695179B2, “Methods and compositions for inhibition of bromodomain-containing proteins” (CONVERGENE LLC, priority 2013, dated 2017).

Columns and labels:
[1] = tested on: MV4-11 acute myeloid leukemia cells; experiment: In vitro cell viability (AlamarBlue), MV4-11; assay type: cell-based; details: Homo sapiens, MV4-11 cells, 72-hour incubation, read-out: In Vitro Cell Viability (IC50) MV4-11 Cells (AML)
Procedure: (§1) MV4-11 acute myeloid leukemia cells (American Type Culture Collection, Manassas, Va.) were added to 96-well clear bottom assay plates containing RPMI-1640 medium supplemented with 10% fetal bovine serum (FBS) at approximately 30,000 cells/well and incubated for 24 hours at 37° C. with 5% CO2 and 95% humidity. Control wells containing no cells were included to measure background fluorescence signal. Test compounds were dissolved at […] and diluted two-fold in DMSO to produce a working stock of compound solutions. Aliquots of the working stock solutions were subsequently diluted 100-fold in basal RPMI-1640 medium which was then further diluted 10-fold to the assay plate containing the cells to provide 10 test concentrations ranging from 0.04 μM-20 μM. Following a 72-hour incubation period, viability of the cells was determined by the AlamarBlue® assay (Life Technologies, Carlsbad, Calif.) following the manufacturer's protocol. Prior to generation of dose response curves, the data were background subtracted using the no cell control values (mean+/−standard deviation) and fluorescence values versus Log10 concentration of test compounds were plotted using GraphPad Prism. The resulting sigmoidal curve was then fit to the graph and IC50 values were calculated using a 4 parameter (4PL) algorithm using the following equation: 4(PL)F(x)=(A−D)/(1+(x/c)^B+D, where A=lower asymptote (baseline response), D=upper asymptote (maximum response), C=drug concentration that provokes a response halfway between A and D, B=slope of the curve. The results for selected compounds are set forth in Table 7.

[2] = tested on: MM1.S Cells (Multiple Myeloma); experiment: In vitro cell viability, MM1.S; assay type: cell-based; details: Homo sapiens
Procedure: [Worded in the source for another cell line; this cell line is reported under the same test.] as §1

BRD4-BD1-BD2 = BRD4-BD1-BD2 (Homo sapiens (Human), UniProt O60885); experiment: AlphaScreening assay, recombinant BRD4-BD1-BD2 and BET Ligand; assay type: binding; details: 2.5 nM BRD4-BD1-BD2, BET Ligand
Procedure: Assays were performed by AlphaScreening technology using a recombinant BRD4-BD1-BD2 and BET Ligand. The AlphaScreening signal from the assay was correlated with the amount of BET Ligand binding to the bromodomain. The compounds were diluted in 50% DMSO and 1 μl of the dilution was added to a 10 μl reaction so that the final concentration of DMSO is 5% in all of reactions. All reactions were conducted at room temperature. The 9 μl reaction mixture in BRD Assay Buffer contains 2.5 nM BRD4-BD1-BD2 and the indicated amount of the inhibitor, and the reaction mixture were incubated for 30 min followed by additional 30 min incubation after the addition of 1 μl of BET Ligand (Table 2.3.1). For the negative control (blank), 1 μl of the assay buffer was added instead of the BET Ligand. After the 30 min incubation with the BET Ligand, 20 μl of BRD Detection buffer containing 10 μg/ml Glutathione acceptor beads and 10 μg/ml Streptavidin Donor beads was added and the final 30 μl mixture was incubated for 50 min in a dark room.
AlphaScreening signal was measured using EnSpire Alpha 2390 Multilabel reader (Perkin Elmer). Binding experiments were performed in duplicate at each concentration. The AlphaScreening data were analyzed using the computer software, Graphpad Prism. In the absence of the compound, the AlphaScreening signal (At) in each data set was defined as 100% activity. In the absence of the BET Ligand, the AlphaScreening signal (Ab) in each data set was defined as 0% activity. The percent activity in the presence of each compound was calculated according to the following equation: % activity=[(A−Ab)/(At−Ab)]×100, where A=the AlphaScreening signal in the presence of the compound, Ab=the AlphaScreening signal in the absence of the BET Ligand, and At=the AlphaScreening signal in the absence of the compound. The percent inhibition was calculated for certain compounds according to the following equation: % inhibition=100−% activity.

SMILES | IC50 [1] | IC50 [2] | inhibition at 10 µM (BRD4-BD1-BD2)
COc1ccccc1/C=C/C(=O)c1c(-c2ccccc2)c2cc(Cl)ccc2[nH]c1=O [Compound 5, 6-chloro-3-(3-(2-methoxyphenyl)acryloyl)-4-phenylquinolin-2(1H)-one] | 1.49 µM | 2.53 µM | 
COc1ccc(/C=C/C(=O)c2c(-c3ccccc3)c3cc(Cl)ccc3[nH]c2=O)cc1OC [Compound 6, 6-chloro-3-(3-(3,4-dimethoxyphenyl)acryloyl)-4-phenylquinolin-2(1H)-one] | 3.57 µM | 31.9 µM | 
COc1ccc(OC)c(/C=C/C(=O)c2c(-c3ccccc3)c3cc(Br)ccc3[nH]c2=O)c1 [Compound 10, 6-bromo-3-(3-(2,5-dimethoxyphenyl)acryloyl)-4-phenylquinolin-2(1H)-one] | 1.75 µM | 3 µM | 
O=C(/C=C/c1ccccc1)c1c(-c2ccncc2)c2cc(Cl)ccc2[nH]c1=O [Compound 11, 6-chloro-3-cinnamoyl-4-(pyridin-4-yl)quinolin-2(1H)-one] | 0.97 µM | 4.21 µM | 
Cc1ccccc1/C=C/C(=O)c1c(-c2cccnc2)c2cc(Cl)ccc2[nH]c1=O [Compound 12, 6-chloro-4-(pyridin-3-yl)-3-(3-o-tolylacryloyl)quinolin-2(1H)-one] | 1.04 µM | 2.44 µM | 
Cc1ccccc1CNC(=O)c1c(-c2ccccc2)c2cc(Cl)ccc2[nH]c1=O [Compound 13, 6-chloro-N-(2-methylbenzyl)-2-oxo-4-phenyl-1,2-dihydroquinoline-3-carboxamide] | 4.73 µM | 3.1 µM | 
O=C(/C=C/c1ccccc1)c1c(-c2ccccc2)c2cc(Cl)cnc2[nH]c1=O [Compound 14, 6-chloro-3-cinnamoyl-4-phenyl-1,8-naphthyridin-2(1H)-one] | 0.71 µM | 14.1 µM | 
COc1ccc(Cn2c(=O)c(-c3coc(C)n3)c(OS(=O)(=O)c3ccccc3)c3cc(Cl)ccc32)cc1 [drawing 651] |  |  | 98%
COc1ccc(Cn2c(=O)c(-c3coc(C)n3)c(OS(=O)(=O)c3cccc4cccnc34)c3cc(Cl)ccc32)cc1 [drawing 652] |  |  | 98%
COc1ccc(Cn2c(=O)c(-c3coc(C)n3)c(OS(=O)(=O)c3ccc(C)cc3)c3cc(Cl)ccc32)cc1 [drawing 653] |  |  | 99%
COc1ccc(Cn2c(=O)c(-c3coc(C)n3)c(OS(=O)(=O)c3ccc(F)cc3)c3cc(Cl)ccc32)cc1 [drawing 654] |  |  | 99%
COc1ccc(Cn2c(=O)c(-c3coc(C)n3)c(OS(=O)(=O)c3ccc(Cl)cc3)c3cc(Cl)ccc32)cc1 [drawing 655] |  |  | 99%
COc1ccc(Cn2c(=O)c(-c3coc(C)n3)c(OS(=O)(=O)c3ccc4ccccc4c3)c3cc(Cl)ccc32)cc1 [drawing 656] |  |  | 99%
COc1ccc(Cn2c(=O)c(-c3coc(C)n3)c(OS(=O)(=O)c3ccc(-c4ccccc4)cc3)c3cc(Cl)ccc32)cc1 [drawing 657] |  |  | 99%
